Assay results taken from ChEMBL document CHEMBL1201861, “Genomics of Drug Sensitity in Cancer screening data, Wellcome Trust Sanger Institute”.

The compounds below were run on Ca-Ski (assay: cells). Conditions: Homo sapiens.
Format: functional, cell-based
Description: SANGER: Inhibition of human Ca-Ski cell growth in a cell viability assay.

SMILES	IC50 [µM]
COc1ccc(-c2cc3nccn3c(Nc3ncccc3C(N)=O)n2)cc1OC	4.55

What follows are compounds tested on DOK (assay: cells). Conditions: Homo sapiens.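 Further: cell viability assay read-out, values reflect inhibition of cell growth.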
Format: functional, cell-based
Description: SANGER: Inhibition of human DOK cell growth in a cell viability assay.

SMILES	IC50 [µM]
COc1ccc(-c2cc3nccn3c(Nc3ncccc3C(N)=O)n2)cc1OC	> 8

These compounds were tested on DU-145 (assay: cells). Conditions: Homo sapiens.
Format: functional, cell-based
Description: SANGER: Inhibition of human DU-145 cell growth in a cell viability assay.

SMILES	IC50 [µM]
COc1ccc(-c2cc3nccn3c(Nc3ncccc3C(N)=O)n2)cc1OC	7.97

Each compound was assayed on EC-GI-10 (assay: cells). Conditions: Homo sapiens, EC-GI-10.
Format: functional, cell-based, Homo sapiens
Description: SANGER: Inhibition of human EC-GI-10 cell growth in a cell viability assay.

SMILES	IC50 [µM]
COc1ccc(-c2cc3nccn3c(Nc3ncccc3C(N)=O)n2)cc1OC	> 8

The compounds below were run on GP5d (assay: cells). Conditions: Homo sapiens.
Format: functional, cell-based
Description: SANGER: Inhibition of human GP5d cell growth in a cell viability assay.

SMILES	IC50 [µM]
COc1ccc(-c2cc3nccn3c(Nc3ncccc3C(N)=O)n2)cc1OC	> 8

Each compound was assayed on HCC1569 (assay: cells). Conditions: Homo sapiens.
Format: functional, cell-based
Description: SANGER: Inhibition of human HCC1569 cell growth in a cell viability assay.

SMILES	IC50 [µM]
COc1ccc(-c2cc3nccn3c(Nc3ncccc3C(N)=O)n2)cc1OC	> 8

The compounds below were run on HO-1-N-1 (assay: cells). Conditions: Homo sapiens.
Format: functional, cell-based
Description: SANGER: Inhibition of human HO-1-N-1 cell growth in a cell viability assay.

SMILES	IC50 [µM]
COc1ccc(-c2cc3nccn3c(Nc3ncccc3C(N)=O)n2)cc1OC	> 8

What follows are compounds tested on HT1197 (assay: cells). Conditions: Homo sapiens.
Format: functional, cell-based, HT-1197
Description: SANGER: Inhibition of human HT-1197 cell growth in a cell viability assay.

SMILES	IC50 [µM]
COc1ccc(-c2cc3nccn3c(Nc3ncccc3C(N)=O)n2)cc1OC	> 8

These compounds were tested on HuP-T4 (assay: cells). Conditions: Homo sapiens.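 Further: cell viability assay measuring how much HuP-T4 cell growth is inhibited.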
Format: functional, cell-based
Description: SANGER: Inhibition of human HuP-T4 cell growth in a cell viability assay.

SMILES	IC50 [µM]
COc1ccc(-c2cc3nccn3c(Nc3ncccc3C(N)=O)n2)cc1OC	7.99

The compounds below were run on IGR-1 (assay: cells). Conditions: Homo sapiens.
Format: functional, cell-based
Description: SANGER: Inhibition of human IGR-1 cell growth in a cell viability assay.

SMILES	IC50 [µM]
COc1ccc(-c2cc3nccn3c(Nc3ncccc3C(N)=O)n2)cc1OC	6.54

These compounds were tested on IGROV-1 (assay: cells). Conditions: Homo sapiens.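 Further: reduction of IGROV-1 cell growth, read out with a viability assay.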
Format: functional, cell-based
Description: SANGER: Inhibition of human IGROV-1 cell growth in a cell viability assay.

SMILES	IC50 [µM]
COc1ccc(-c2cc3nccn3c(Nc3ncccc3C(N)=O)n2)cc1OC	2.53

The compounds below were run on J82 (assay: cells). Conditions: Homo sapiens.
Format: functional, cell-based
Description: SANGER: Inhibition of human J82 cell growth in a cell viability assay.

SMILES	IC50 [µM]
COc1ccc(-c2cc3nccn3c(Nc3ncccc3C(N)=O)n2)cc1OC	1.51

What follows are compounds tested on K052 (assay: cells). Conditions: Homo sapiens, K052.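 Further: Read-out from a cell viability assay, IC50 reflecting suppression of K052 cell growth.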
Format: functional, cell-based, Homo sapiens
Description: SANGER: Inhibition of human K052 cell growth in a cell viability assay.

SMILES	IC50 [µM]
COc1ccc(-c2cc3nccn3c(Nc3ncccc3C(N)=O)n2)cc1OC	> 8

Each compound was assayed on KYSE-520 cell line (assay: cells). Conditions: Homo sapiens.
Format: functional, cell-based
Description: SANGER: Inhibition of human KYSE-520 cell growth in a cell viability assay.

SMILES	IC50 [µM]
COc1ccc(-c2cc3nccn3c(Nc3ncccc3C(N)=O)n2)cc1OC	> 8

These compounds were tested on LU-99A (assay: cells). Conditions: Homo sapiens.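 Further: growth inhibition of LU-99A cells, read out with a cell viability assay.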
Format: functional, cell-based
Description: SANGER: Inhibition of human LU-99A cell growth in a cell viability assay.

SMILES	IC50 [µM]
COc1ccc(-c2cc3nccn3c(Nc3ncccc3C(N)=O)n2)cc1OC	> 8

These compounds were tested on M14 (assay: cells). Conditions: Homo sapiens.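 Further: growth inhibition of M14 cells, read out with a cell viability assay.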
Format: functional, cell-based
Description: SANGER: Inhibition of human M14 cell growth in a cell viability assay.

SMILES	IC50 [µM]
COc1ccc(-c2cc3nccn3c(Nc3ncccc3C(N)=O)n2)cc1OC	> 8

What follows are compounds tested on MDA-MB-231 (assay: cells). Conditions: Homo sapiens.
Format: functional, cell-based
Description: SANGER: Inhibition of human MDA-MB-231 cell growth in a cell viability assay.

SMILES	IC50 [µM]
COc1ccc(-c2cc3nccn3c(Nc3ncccc3C(N)=O)n2)cc1OC	> 8

What follows are compounds tested on MEL-JUSO (assay: cells). Conditions: Homo sapiens.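 Further: growth inhibition of human MEL-JUSO cells, read out with a cell viability assay.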
Format: functional, cell-based
Description: SANGER: Inhibition of human MEL-JUSO cell growth in a cell viability assay.

SMILES	IC50 [µM]
COc1ccc(-c2cc3nccn3c(Nc3ncccc3C(N)=O)n2)cc1OC	2.74

What follows are compounds tested on MFE-280 (assay: cells). Conditions: Homo sapiens.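 Further: growth inhibition of MFE-280 cells, determined with a cell viability readout.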
Format: functional, cell-based
Description: SANGER: Inhibition of human MFE-280 cell growth in a cell viability assay.

SMILES	IC50 [µM]
COc1ccc(-c2cc3nccn3c(Nc3ncccc3C(N)=O)n2)cc1OC	> 8

The compounds below were run on NCI-H1417 (assay: cells). Conditions: Homo sapiens, NCI-H1417.
Format: functional, cell-based, Homo sapiens
Description: SANGER: Inhibition of human NCI-H1417 cell growth in a cell viability assay.

SMILES	IC50 [µM]
COc1ccc(-c2cc3nccn3c(Nc3ncccc3C(N)=O)n2)cc1OC	> 8

Each compound was assayed on NCI-H1573 (assay: cells). Conditions: Homo sapiens.
Format: functional, cell-based
Description: SANGER: Inhibition of human NCI-H1573 cell growth in a cell viability assay.

SMILES	IC50 [µM]
COc1ccc(-c2cc3nccn3c(Nc3ncccc3C(N)=O)n2)cc1OC	> 8

What follows are compounds tested on NCI-H1755 (assay: cells). Conditions: Homo sapiens.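 Further: cell viability readout used to measure growth inhibition of NCI-H1755 cells.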
Format: functional, cell-based
Description: SANGER: Inhibition of human NCI-H1755 cell growth in a cell viability assay.

SMILES	IC50 [µM]
COc1ccc(-c2cc3nccn3c(Nc3ncccc3C(N)=O)n2)cc1OC	> 8

These compounds were tested on NCI-H1993 (assay: cells). Conditions: Homo sapiens.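 Further: growth inhibition of the cancer cell line, assessed with a cell viability assay.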
Format: functional, cell-based
Description: SANGER: Inhibition of human NCI-H1993 cell growth in a cell viability assay.

SMILES	IC50 [µM]
COc1ccc(-c2cc3nccn3c(Nc3ncccc3C(N)=O)n2)cc1OC	> 8

What follows are compounds tested on NCI-H2081 (assay: cells). Conditions: Homo sapiens, NCI-H2081.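 Further: growth inhibition of human NCI-H2081 cells, read out with a cell viability assay.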
Format: functional, cell-based, Homo sapiens
Description: SANGER: Inhibition of human NCI-H2081 cell growth in a cell viability assay.

SMILES	IC50 [µM]
COc1ccc(-c2cc3nccn3c(Nc3ncccc3C(N)=O)n2)cc1OC	> 8

The compounds below were run on NCI-H2087 (assay: cells). Conditions: Homo sapiens.
Format: functional, cell-based
Description: SANGER: Inhibition of human NCI-H2087 cell growth in a cell viability assay.

SMILES	IC50 [µM]
COc1ccc(-c2cc3nccn3c(Nc3ncccc3C(N)=O)n2)cc1OC	2.79

What follows are compounds tested on NCI-H2196 (assay: cells). Conditions: Homo sapiens, NCI-H2196; read-out: IC50.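 Further: cell viability assay used as the readout of growth inhibition in NCI-H2196 cells.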
Format: functional, cell-based, Homo sapiens
Description: SANGER: Inhibition of human NCI-H2196 cell growth in a cell viability assay.

SMILES	IC50 [µM]
COc1ccc(-c2cc3nccn3c(Nc3ncccc3C(N)=O)n2)cc1OC	> 8

These compounds were tested on NCI-H2342 (assay: cells). Conditions: Homo sapiens.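 Further: growth inhibition of the cancer cell line, determined with a cell viability assay.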
Format: functional, cell-based
Description: SANGER: Inhibition of human NCI-H2342 cell growth in a cell viability assay.

SMILES	IC50 [µM]
COc1ccc(-c2cc3nccn3c(Nc3ncccc3C(N)=O)n2)cc1OC	1.82

These compounds were tested on NCI-H292 (assay: cells). Conditions: Homo sapiens.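 Further: growth inhibition of NCI-H292 cells, read out with a cell viability assay.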
Format: functional, cell-based
Description: SANGER: Inhibition of human NCI-H292 cell growth in a cell viability assay.

SMILES	IC50 [µM]
COc1ccc(-c2cc3nccn3c(Nc3ncccc3C(N)=O)n2)cc1OC	> 8

What follows are compounds tested on NCI-H520 (assay: cells). Conditions: Homo sapiens.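 Further: growth inhibition of NCI-H520 cells, measured by a cell viability assay.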
Format: functional, cell-based
Description: SANGER: Inhibition of human NCI-H520 cell growth in a cell viability assay.

SMILES	IC50 [µM]
COc1ccc(-c2cc3nccn3c(Nc3ncccc3C(N)=O)n2)cc1OC	> 8

The compounds below were run on NCI-H64 (assay: cells). Conditions: Homo sapiens, NCI-H64.
Format: functional, cell-based, Homo sapiens
Description: SANGER: Inhibition of human NCI-H64 cell growth in a cell viability assay.

SMILES	IC50 [µM]
COc1ccc(-c2cc3nccn3c(Nc3ncccc3C(N)=O)n2)cc1OC	2.16

Each compound was assayed on OAW-28 (assay: cells). Conditions: Homo sapiens.
Format: functional, cell-based
Description: SANGER: Inhibition of human OAW-28 cell growth in a cell viability assay.

SMILES	IC50 [µM]
COc1ccc(-c2cc3nccn3c(Nc3ncccc3C(N)=O)n2)cc1OC	> 8

The compounds below were run on OVCAR-5 (assay: cells). Conditions: Homo sapiens.
Format: functional, cell-based
Description: SANGER: Inhibition of human OVCAR-5 cell growth in a cell viability assay.

SMILES	IC50 [µM]
COc1ccc(-c2cc3nccn3c(Nc3ncccc3C(N)=O)n2)cc1OC	7.41

Each compound was assayed on PF-382 (assay: cells). Conditions: Homo sapiens, PF-382.
Format: functional, cell-based, Homo sapiens
Description: SANGER: Inhibition of human PF-382 cell growth in a cell viability assay.

SMILES	IC50 [µM]
COc1ccc(-c2cc3nccn3c(Nc3ncccc3C(N)=O)n2)cc1OC	2.41

Each compound was assayed on RPMI-2650 (assay: cells). Conditions: Homo sapiens.
Format: functional, cell-based
Description: SANGER: Inhibition of human RPMI-2650 cell growth in a cell viability assay.

SMILES	IC50 [µM]
COc1ccc(-c2cc3nccn3c(Nc3ncccc3C(N)=O)n2)cc1OC	0.696

These compounds were tested on RVH-421 (assay: cells). Conditions: Homo sapiens.
Format: functional, cell-based
Description: SANGER: Inhibition of human RVH-421 cell growth in a cell viability assay.

SMILES	IC50 [µM]
COc1ccc(-c2cc3nccn3c(Nc3ncccc3C(N)=O)n2)cc1OC	> 8

These compounds were tested on S-117 (assay: cells). Conditions: Homo sapiens.
Format: functional, cell-based
Description: SANGER: Inhibition of human S-117 cell growth in a cell viability assay.

SMILES	IC50 [µM]
COc1ccc(-c2cc3nccn3c(Nc3ncccc3C(N)=O)n2)cc1OC	> 8

The compounds below were run on SBC-5 (assay: cells). Conditions: Homo sapiens.
Format: functional, cell-based
Description: SANGER: Inhibition of human SBC-5 cell growth in a cell viability assay.

SMILES	IC50 [µM]
COc1ccc(-c2cc3nccn3c(Nc3ncccc3C(N)=O)n2)cc1OC	> 8

Each compound was assayed on SCC-3 (assay: cells). Conditions: Homo sapiens, SCC-3.
Format: functional, cell-based, Homo sapiens
Description: SANGER: Inhibition of human SCC-3 cell growth in a cell viability assay.

SMILES	IC50 [µM]
COc1ccc(-c2cc3nccn3c(Nc3ncccc3C(N)=O)n2)cc1OC	7.5

What follows are compounds tested on SK-OV-3 (assay: cells). Conditions: Homo sapiens.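 Further: growth inhibition of SK-OV-3 human cells, read out with a cell viability assay.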
Format: functional, cell-based
Description: SANGER: Inhibition of human SK-OV-3 cell growth in a cell viability assay.

SMILES	IC50 [µM]
COc1ccc(-c2cc3nccn3c(Nc3ncccc3C(N)=O)n2)cc1OC	> 8

These compounds were tested on SNU-423 (assay: cells). Conditions: Homo sapiens.
Format: functional, cell-based
Description: SANGER: Inhibition of human SNU-423 cell growth in a cell viability assay.

SMILES	IC50 [µM]
COc1ccc(-c2cc3nccn3c(Nc3ncccc3C(N)=O)n2)cc1OC	> 8

These compounds were tested on SUP-T1 (assay: cells). Conditions: Homo sapiens, SUP-T1.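 Further: growth inhibition of human SUP-T1 cells, read out as cell viability.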
Format: functional, cell-based, Homo sapiens
Description: SANGER: Inhibition of human SUP-T1 cell growth in a cell viability assay.

SMILES	IC50 [µM]
COc1ccc(-c2cc3nccn3c(Nc3ncccc3C(N)=O)n2)cc1OC	2.1

The compounds below were run on SW1088 (assay: cells). Conditions: Homo sapiens.
Format: functional, cell-based
Description: SANGER: Inhibition of human SW1088 cell growth in a cell viability assay.

SMILES	IC50 [µM]
COc1ccc(-c2cc3nccn3c(Nc3ncccc3C(N)=O)n2)cc1OC	> 8

Each compound was assayed on SW48 (assay: cells). Conditions: Homo sapiens.
Format: functional, cell-based
Description: SANGER: Inhibition of human SW48 cell growth in a cell viability assay.

SMILES	IC50 [µM]
COc1ccc(-c2cc3nccn3c(Nc3ncccc3C(N)=O)n2)cc1OC	7.73

Each compound was assayed on T47D (assay: cells). Conditions: Homo sapiens.
Format: functional, cell-based
Description: SANGER: Inhibition of human T47D cell growth in a cell viability assay.

SMILES	IC50 [µM]
COc1ccc(-c2cc3nccn3c(Nc3ncccc3C(N)=O)n2)cc1OC	> 8

Each compound was assayed on CWR22R (assay: cells). Conditions: Homo sapiens, 22Rv1.
Format: functional, cell-based
Description: SANGER: Inhibition of human 22RV1 cell growth in a cell viability assay.

SMILES	IC50 [µM]
COc1ccc(-c2cc3nccn3c(Nc3ncccc3C(N)=O)n2)cc1OC	> 8

Each compound was assayed on 639-V (assay: cells). Conditions: Homo sapiens.
Format: functional, cell-based
Description: SANGER: Inhibition of human 639-V cell growth in a cell viability assay.

SMILES	IC50 [µM]
COc1ccc(-c2cc3nccn3c(Nc3ncccc3C(N)=O)n2)cc1OC	1.43

These compounds were tested on ASPC1 (assay: cells). Conditions: Homo sapiens.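 Further: growth inhibition of AsPC-1 cells, read out with a cell viability assay.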
Format: functional, cell-based
Description: SANGER: Inhibition of human AsPC-1 cell growth in a cell viability assay.

SMILES	IC50 [µM]
COc1ccc(-c2cc3nccn3c(Nc3ncccc3C(N)=O)n2)cc1OC	> 8

The compounds below were run on BOKU (assay: cells). Conditions: Homo sapiens.
Format: functional, cell-based
Description: SANGER: Inhibition of human BOKU cell growth in a cell viability assay.

SMILES	IC50 [µM]
COc1ccc(-c2cc3nccn3c(Nc3ncccc3C(N)=O)n2)cc1OC	> 8

The compounds below were run on C32 (assay: cells). Conditions: Homo sapiens.
Format: functional, cell-based
Description: SANGER: Inhibition of human C32 cell growth in a cell viability assay.

SMILES	IC50 [µM]
COc1ccc(-c2cc3nccn3c(Nc3ncccc3C(N)=O)n2)cc1OC	> 8

Each compound was assayed on CAL-120 (assay: cells). Conditions: Homo sapiens.
Format: functional, cell-based
Description: SANGER: Inhibition of human CAL-120 cell growth in a cell viability assay.

SMILES	IC50 [µM]
COc1ccc(-c2cc3nccn3c(Nc3ncccc3C(N)=O)n2)cc1OC	> 8

The compounds below were run on CAL-27 (assay: cells). Conditions: Homo sapiens.
Format: functional, cell-based
Description: SANGER: Inhibition of human CAL-27 cell growth in a cell viability assay.

SMILES	IC50 [µM]
COc1ccc(-c2cc3nccn3c(Nc3ncccc3C(N)=O)n2)cc1OC	4.59

The compounds below were run on CAL-62 (assay: cells). Conditions: Homo sapiens.
Format: functional, cell-based
Description: SANGER: Inhibition of human CAL-62 cell growth in a cell viability assay.

SMILES	IC50 [µM]
COc1ccc(-c2cc3nccn3c(Nc3ncccc3C(N)=O)n2)cc1OC	> 8

Each compound was assayed on TUR (assay: cells). Conditions: Homo sapiens, TUR.
Format: functional, cell-based, Homo sapiens
Description: SANGER: Inhibition of human TUR cell growth in a cell viability assay.

SMILES	IC50 [µM]
COc1ccc(-c2cc3nccn3c(Nc3ncccc3C(N)=O)n2)cc1OC	2.57

These compounds were tested on U-698-M (assay: cells). Conditions: Homo sapiens, U-698-M.
Format: functional, cell-based, Homo sapiens
Description: SANGER: Inhibition of human U-698-M cell growth in a cell viability assay.

SMILES	IC50 [µM]
COc1ccc(-c2cc3nccn3c(Nc3ncccc3C(N)=O)n2)cc1OC	1.02

These compounds were tested on UACC-62 (assay: cells). Conditions: Homo sapiens.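 Further: growth inhibition of human UACC-62 cells, read out by a cell viability assay.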
Format: functional, cell-based
Description: SANGER: Inhibition of human UACC-62 cell growth in a cell viability assay.

SMILES	IC50 [µM]
COc1ccc(-c2cc3nccn3c(Nc3ncccc3C(N)=O)n2)cc1OC	> 8

Each compound was assayed on VMRC-RCZ (assay: cells). Conditions: Homo sapiens.
Format: functional, cell-based
Description: SANGER: Inhibition of human VMRC-RCZ cell growth in a cell viability assay.

SMILES	IC50 [µM]
COc1ccc(-c2cc3nccn3c(Nc3ncccc3C(N)=O)n2)cc1OC	5.58

Each compound was assayed on CHL-1 (assay: cells). Conditions: Homo sapiens.
Format: functional, cell-based
Description: SANGER: Inhibition of human CHL-1 cell growth in a cell viability assay.

SMILES	IC50 [µM]
COc1ccc(-c2cc3nccn3c(Nc3ncccc3C(N)=O)n2)cc1OC	4.05
